Here are results for two molecules from patent publication US20240252655A1, “DEUBIQUITINASE-TARGETING CHIMERAS AND RELATED METHODS” (Novartis AG, priority 2021, published 2024).

For experiment [1], the target named is T1, OTUB1 (Homo sapiens, UniProt Q96FW1). In words: In vitro reconstituted OTUB1 deubiquitination activity assay (monoubiquitin release from di-ubiquitin). The experiment is classed as biochemical. Also noted: dose or concentration left out as unconfirmed. As to conditions: in the presence of UBE2D1; OTUB1 pre-incubated with Compound 100 for 1 hr; Western blotting. How it is done:
These studies were performed in the presence of OTUB1-stimulating Ubiquitin-conjugating enzyme E2 D1 (UBE2D1), an E2 ubiquitin ligase that engages in a complex with OTUB1 to stimulate OTUB1 activity.
Previously described methods were used to assess DUB Recruiters effects on OTUB1 activity. Recombinant OTUB1 (500 nM) was pre-incubated with DMSO or Compound 100 […] for 1 hr. To initiate assay pre-treated OTUB1 enzyme was mixed 1:1 with di-Ub reaction mix for final concentrations of 250 nM OTUB1, 1.5 μM di-Ub, 12.5 μM UBE2D1 and 5 mM DTT. The appearance of mono-Ub was monitored by Western blotting over time by removing a portion of the reaction mix and adding Laemmli's buffer to terminate the reaction. Blot shown is a representative gel from n=3 biologically independent experiments/group.
Target sequence in this assay (Q96FW1 whole entry): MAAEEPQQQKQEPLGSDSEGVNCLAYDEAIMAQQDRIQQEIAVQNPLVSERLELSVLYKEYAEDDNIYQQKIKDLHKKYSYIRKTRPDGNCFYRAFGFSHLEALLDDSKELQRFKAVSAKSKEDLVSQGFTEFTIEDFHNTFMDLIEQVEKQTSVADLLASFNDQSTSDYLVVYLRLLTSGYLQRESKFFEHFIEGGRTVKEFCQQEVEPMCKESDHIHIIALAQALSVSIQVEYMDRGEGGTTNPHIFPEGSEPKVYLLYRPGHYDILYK
Target sequence in this assay (P51668 whole entry partner): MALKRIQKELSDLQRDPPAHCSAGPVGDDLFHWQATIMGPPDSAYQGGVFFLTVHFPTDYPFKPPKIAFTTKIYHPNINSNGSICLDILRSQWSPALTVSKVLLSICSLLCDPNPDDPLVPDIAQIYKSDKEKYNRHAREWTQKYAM
A general note: Immunoblotting shows a protein as a band on a membrane.

Experiment [2] addresses T1, OTUB1. The experiment in a line: Gel-based ABPP: competition against IA-rhodamine labeling of OTUB1. The experiment is classed as binding. As to conditions: pre-incubated with OTUB1 30 min at 37° C.; IA-rhodamine 500 nM, 30 min room temperature; in-gel fluorescence; n=3. How it is done: Vehicle (DMSO) or an exemplary DUB Recruiter (Compound 100) were pre-incubated with OTUB1 for 30 min at 37° C. prior to IA-rhodamine labeling (500 nM, 30 min room temperature). OTUB1 was then separated by SDS/PAGE and in-gel fluorescence was assessed. Protein loading is illustrated by silver staining. The gel shown is representative gel of n=3 biologically independent samples/group.
Recombinant OTUB1 ([…]) was pre-treated with either DMSO vehicle or covalent ligand or bifunctional compounds at 37° C. for 30 min in 25 μL of PBS, and subsequently treated with of IA-Rhodamine (Setareh Biotech) at room temperature for 1 h. The reaction was stopped by addition of 4× reducing Laemmli SDS sample loading buffer (Alfa Aesar). After boiling at 95° C. for 5 min, the samples were separated on precast 4-20% Criterion TGX gels (Bio-Rad). Probe-labeled proteins were analyzed by in-gel fluorescence using a ChemiDoc MP (Bio-Rad).
A covalent ligand screen of cysteine-reactive libraries competed against IA-rhodamine labeling of a recombinant exemplary deubiquitinase OTUB1 was carried out to identify small molecule binders to OTUB1 by gel-based activity-based protein profiling (ABPP). […] OTUB1 was then separated by SDS/PAGE and in-gel fluorescence was assessed and quantified.
Target sequence in this assay (Q96FW1 whole entry): as the sequence (Q96FW1 whole entry) above

Experiment [3] concerns the target T1, OTUB1. The experiment in a line: LC-MS/MS analysis of tryptic peptides from OTUB1 covalently bound to DUB Recruiter. In kind it is binding. As to conditions: tryptic peptides from OTUB1 covalently bound to compound.
Target sequence in this assay (Q96FW1 whole entry): as above
The next experiment has as its target CFTR-OTUB1 complex (Homo sapiens, UniProt P13569+Q96FW1, DEL508-508). The experiment in a line: Native mass spectrometry analysis of ternary complex formation. As to conditions: native MS; recombinant OTUB1 and DF508-harboring CFTR nucleotide-binding domain; 50 μM compound final. How it is done:
FIGS. 15A-15D are images that confirm formation of a ternary complex between CFTR, an exemplary bifunctional compound (Compound 201), and OTUB1 in vitro using recombinant protein and native mass spectrometry (MS)-based approaches. FIGS. 15A-15C depict native mass spectra of CFTR-OTUB1 complex formation in the presence of DMSO (FIG. 15A), the DUB Recruiter Compound 100 alone (FIG. 15B), or the bifunctional compound Compound 201 (FIG. 15C).
Native mass spectrometry experiments were performed on a Thermo QE UHMR equipped with a nano-electrospray ionization source (Advion TriVersa NanoMate). Recombinant OTUB1 was first buffer exchanged into 150 mM ammonium acetate, 100 μM MgCl2, and 100 μM ATP at pH 6.7. 4 μM OTUB1 was then pre-incubated at room temperature for 24 hours with either DMSO, DUB Recruiter Compound 100 (100 μM), or DUBTAc Compound […] (100 μM). After 24 hours, 4 μM CFTR, in the same buffer, was added to the OTUB1 solution, for final concentrations of 2 μM of each protein with either DMSO or 50 μM compound. The solution was then allowed to incubate for 30 minutes prior to analysis on the mass spectrometer. Mass spectra were recorded in positive ion mode with a mass range of 1000-8000 m/z. Each spectrum was then deconvoluted and relevant peaks were integrated to determine % ternary complex formed. All experiments were performed in triplicate.

Sequence of CFTR-OTUB1 complex (Q96FW1 whole entry, stated change not applied, the tested form may be a part): as the sequence (Q96FW1 whole entry) above
Sequence of CFTR-OTUB1 complex (P13569 with tags, fused parts or gaps DEL508-508 limits assumed): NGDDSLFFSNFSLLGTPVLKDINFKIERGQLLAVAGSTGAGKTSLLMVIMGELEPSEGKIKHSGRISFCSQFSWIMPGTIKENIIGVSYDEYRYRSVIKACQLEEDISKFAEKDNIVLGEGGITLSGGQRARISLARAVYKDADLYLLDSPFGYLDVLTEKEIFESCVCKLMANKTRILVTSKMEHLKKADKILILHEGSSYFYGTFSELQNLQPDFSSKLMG

Regarding `C=CC(=O)N1CCN(c2ccc(C)o2)C(=O)C1` [Compound 100], the “OTUB1 deubiquitination activity (monoubiquitin release from di-ubiquitin)” value on OTUB1 [1] is given as “does not inhibit”. Further, the “inhibition of IA-rhodamine binding of OTUB1” value on OTUB1 [2] is “dose-responsive inhibition”. Besides, on OTUB1 [3], the “cysteine of OTUB1 targeted (covalent modification site)” value was “selectively targets C23” and the “modification of the catalytic C91 of OTUB1” value was “no detectable modification”. The CFTR-OTUB1 complex formation result on CFTR-OTUB1 complex is given as “not”.
On to `C=CC(=O)N1CCN(c2ccc(CCC(=O)NCCCCCNC(=O)c3cccc(-c4nc(NC(=O)C5(c6ccc7c(c6)OC(F)(F)O7)CC5)ccc4C)c3)o2)C(=O)C1` [Compound 201, N-(5-(3-(5-(4-acryloyl-2-oxopiperazin-1-yl)furan-2-yl)propanamido)pentyl)-3-(6-(1-(2,2-difluorobenzo[d][1,3]dioxol-5-yl)cyclopropane-1-carboxamido)-3-methylpyridin-2-yl)benzamide], for which the CFTR-OTUB1 complex formation result on CFTR-OTUB1 complex is on record as “significant CFTR-OTUB1 complex formation was observed”.
